Legend:
[1] = test system: E. coli-stimulated macrophages; experiment: Arachidonic acid release from E. coli-stimulated macrophages; type: cell-based, human; conditions: ≤1 μM
Method: Macrophages were stimulated in PBS pH 7.4 (containing 1 mM CaCl2) with E. coli (serotype O6:K2:H1) at a ratio of 1:50 (macrophages: E. coli) for 180 min at 37 °C and 5% CO2.[24]
Fatty acids and lipid mediators were extracted from macrophage supernatants or murine peritoneal exudates (1 mL) after addition of two aliquots of ice-cold methanol.[23]d8-5S-HETE, d4-LTB4, d5-lipoxin A4, d5-resolvin D2, d4-PGE2 (200 nM, each, Cayman Chemicals), and d8-arachidonic acid (10 μM, Cayman Chemicals) were added as internal standards. After protein precipitation at −20 °C for ≥1 h, supernatants (1200g, 10 min, 4 °C) were acidified (pH 3.5) and loaded onto solid-phase cartridges (Sep-Pak Vac 6cc 500 mg/6 mL C18; Waters), which had been equilibrated with methanol and H2O. The columns were extensively washed with H2O and hexane before lipid mediators were eluted with methyl formate, evaporated to dryness, dissolved in methanol/H2O (50:50), and analyzed by UPLC-MS/MS.[23]
Absolute quantification was based on 6 internal and 45 external standards.[23]

[2] = test system: CYP3A4; experiment: CYP3A4 expression in differentiated HepaRG cells; type: cell-based, human; conditions: 48 h
Method: HepaRG cells were seeded at a density of 2.6 × 10^4 cells/cm^2 in Williams’ E medium supplemented with 2 mM GlutaMAX (Thermo Fisher Scientific, Waltham, MA), 100 U/mL penicillin, 100 μg/mL streptomycin, 10% HyClone FCS (Thermo Fisher Scientific), 5 μg/mL insulin, and […] hydrocortisone-hemisuccinate. At confluence after two weeks, HepaRG cells were shifted to a medium supplemented with 1.7% DMSO for two additional weeks to obtain confluent differentiated cultures containing equal proportions of hepatocyte-like and progenitors/primitive biliary-like cells. These differentiated hepatic cell cultures were exposed to the compounds in Williams’ E medium supplemented with 2% FCS plus 0.2% DMSO for 48 h. […]
The assay plate was imaged and analyzed using the Cell Health Profiling BioApplications (HCS Studio Cellomics software Version x.6.4.3 (Build 7207)) on the ArrayScan VTI HCS Reader (Thermo Fisher Scientific—Cellomics, Pittsburgh, PA) using the 20× objective (Zeiss, LD Plan Neofluar 20×/0.4 korr). […]
The CYP3A4 expression was quantified using an arbitrary unit of fluorescent mass representing the combination of intensity and area adjusted to cell number calculated by nuclei counting (Hoechst).

[3] = Concentrations and metabolism of compound in mice with zymosan-induced peritonitis; type: in vivo
Method: LCMs, 27a, and 27a metabolites were extracted from PMNL, medium of the liver-on-chip, murine plasma, peritoneal exudate, or homogenized murine tissue as described.[6] In brief, PBS pH 7.4, methanol, chloroform, and saline (final ratio: 14:34:35:17) were successively added together with 13d (9 pmol) as the internal standard. The organic layer was evaporated, and the extracted LCMs were dissolved in methanol.
LCMs, 27a, and 27a metabolites were separated at a flow rate of 0.8 mL/min and a column temperature of 45 °C, with acetonitrile/H2O (10:90) as mobile phase A and acetonitrile as mobile phase B, both acidified with 0.07% formic acid. The linear gradient from A/B = 50:50 to 0:100 within 4.5 min was followed by isocratic elution with A/B = 0:100 for 1 min. MS parameters were adjusted according to Pein et al.[6] and as detailed in Table S3. Signal intensities were normalized to the internal standard 13d, and concentrations were calculated using external calibration curves as specified in Table S3.
Zymosan (2 mg/mL in saline, i.p., 0.5 mL, Sigma-Aldrich) was injected at 30 min (i.p.) or 60 min (p.o.) post compound administration. Mice were sacrificed by inhalation of CO2 after another 30 min to determine LTC4 levels, lipid mediator profiles, metabolites, and vascular permeability and after 4 h to analyze LTB4 levels and cell infiltration.[72] Plasma and peritoneal exudates were collected, and cells were counted in exudates after trypan blue staining. Vascular permeability was measured by injection of Evans blue dye (40 mg/kg in saline, 0.3 mL, Sigma-Aldrich) into the tail vain directly before peritonitis induction.[72] The exudate was centrifuged (3000g, 5 min), and the absorbance was measured at 610 nm (DU730 spectrophotometer, Beckman Coulter, Krefeld, Germany). Levels of LTB4 and cysteinyl-LTs (dominated by LTC4) were quantified in the exudate by ELISA (Enzo Life Sciences, Lörrach, Germany) according to the manufacturer’s instructions. Compound 27a, its metabolites, and lipid mediators were extracted and analyzed by UPLC-MS/MS.

[4] = target: T1, 5-LOX (Homo sapiens, UniProt P09917); experiment: Tryptophan fluorescence spectroscopy of 5-LOX; type: binding; set-up: made in house; host or cells: E. coli Bl21 (DE3); conditions: 5-LOX titrated with compound, 0–10 μM
T1 sequence (P09917 1-674): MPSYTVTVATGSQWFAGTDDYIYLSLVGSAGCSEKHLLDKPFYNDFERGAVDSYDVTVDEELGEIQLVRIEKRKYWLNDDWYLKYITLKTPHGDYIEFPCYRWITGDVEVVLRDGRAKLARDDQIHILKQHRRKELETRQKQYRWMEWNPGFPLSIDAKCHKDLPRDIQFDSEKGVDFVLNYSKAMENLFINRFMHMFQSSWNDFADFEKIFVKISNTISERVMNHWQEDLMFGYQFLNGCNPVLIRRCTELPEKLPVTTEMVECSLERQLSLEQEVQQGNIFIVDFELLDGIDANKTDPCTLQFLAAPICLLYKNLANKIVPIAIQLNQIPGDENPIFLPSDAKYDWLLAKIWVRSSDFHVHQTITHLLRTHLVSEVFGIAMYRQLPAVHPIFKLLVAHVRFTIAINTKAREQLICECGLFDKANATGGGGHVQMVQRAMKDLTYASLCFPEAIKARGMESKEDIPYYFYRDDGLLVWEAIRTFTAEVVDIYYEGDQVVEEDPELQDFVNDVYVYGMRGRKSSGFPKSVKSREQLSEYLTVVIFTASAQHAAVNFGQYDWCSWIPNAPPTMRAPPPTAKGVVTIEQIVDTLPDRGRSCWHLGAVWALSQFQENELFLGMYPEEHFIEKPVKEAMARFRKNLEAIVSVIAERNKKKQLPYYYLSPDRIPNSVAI
Method: Fluorescence spectroscopy measurements on human recombinant 5-LOX (Abcam, Cambridge, U.K.) were conducted in PBS pH 7.4 at 25 °C using an Edinburgh Instruments FLS920 Series fluorescence spectrophotometer (Livingston, U.K.). […] The concentration range of 5-LOX used through the experiments was 0.3–0.6 μM. 5-LOX was titrated with a stock solution of the test compounds in dimethylformamide to yield an experimental compound concentration in the range of 0–10 μM. The final dimethylformamide concentration was kept under 5%. After each addition, the sample was incubated for 10 min before measurement. The fluorescence emission intensity values were corrected for dilution and background noise. All conditions were measured independently and in duplicate.
The fluorescence spectral shifts were analyzed by monitoring the alterations in the spectral center of mass by estimating the intensity-averaged emission wavelength (⟨λ⟩), as calculated from the following equation, where Fi is the fluorescence emission intensity at wavenumber νi, and the summation was performed over the range of measured F values [drawing 1] 1

With C/C(=C\CC/C(C)=C/CC[C@]1(C)CCc2c(C)c(O)c(C)c(C)c2O1)CCC=C(CO)CO [Compound 27a, α-amplexichromanol] the “Availability of free arachidonic acid” value [1] was “neither reduced the availability of free arachidonic acid”, the “CYP450 enzyme (CYP3A4) expression” value [2] was “did not induce CYP450 enzyme expression” and the concentration at 90 min ([3]; CD-1, mouse, plasma, po, mice with acute peritonitis, 10 mg/kg p.o., 90 min post administration) was 30 to 900 nM. The “Side-chain degradation in mice” value ([3]; mice, 10 mg/kg p.o., plasma) was “resistant to degradation”, the “Time to uptake after oral administration” value ([3]; mice, p.o.) was at most 1 h and the “Concentrations in the peritoneal exudate” value ([3]; mice, peritonitis, oral administration 30 mg/kg) was 0.5 to 4 nM. For the same molecule, the “Shift of spectral center of mass of intrinsic Trp fluorescence of 5-LOX” value [4] was “less pronounced”.

— publication PMC8365602 (Journal of Medicinal Chemistry, 2021)
